# Data: paper PMC9686977, “Understanding the Role of Self-Assembly and Interaction with Biological Membranes of Short Cationic Lipopeptides in the Effective Design of New Antibiotics” (Antibiotics, 2022)
# Residues, ends and D or L forms follow the SMILES beside them. *: point of attachment. Palmitoyl = CCCCCCCCCCCCCCCC(=O)*; Myristoyl = CCCCCCCCCCCCCC(=O)*; Lauroyl = CCCCCCCCCCCC(=O)*
# Columns and labels:
# [1] = tested on: Candida albicans ATCC 10231; format: cell-based; conditions: ATCC 10231, 48 h
# Experimental: (§1) The minimum inhibitory concentration (MIC) was determined according to the procedure recommended by the Clinical Laboratory Standards Institute guidelines. Reference strains of bacteria: Staphylococcus aureus ATCC 25923, Staphylococcus epidermidis ATCC 14990, Escherichia coli ATCC 25922, Pseudomonas aeruginosa ATCC 9027, and fungus Candida albicans ATCC 10231 were obtained from Polish Collection of Microorganisms (PCM, Polish Academy of Sciences, Wroclaw, Poland). […] The plates with the compounds were incubated for 18 h at 37 °C for bacteria and 48 h at 25 °C for fungi. The minimum inhibitory concentration was assumed as the lowest concentration of a lipopeptide at which the observable growth was inhibited.
# [2] = tested on: Escherichia coli ATCC 25922; format: cell-based; conditions: ATCC 25922, 18 h
# Experimental: as §1
# [3] = tested on: Pseudomonas aeruginosa ATCC 9027; format: cell-based; conditions: ATCC 9027, 18 h
# Experimental: as §1
# [4] = tested on: Staphylococcus aureus ATCC 25923; format: cell-based; conditions: ATCC 25923, 18 h
# Experimental: as §1
# [5] = tested on: Staphylococcus epidermidis ATCC 14990; format: cell-based; conditions: ATCC 14990, 18 h
# Experimental: as §1
# [6] = tested on: human keratinocytes HaCaT; format: cell-based; conditions: 48 h
# Experimental: The cytotoxicity of the compounds was evaluated on the basis of a tetrazolium salt reduction test (MTT) performed along the lines of human keratinocytes HaCaT. The keratinocytes were planted in 96-well plates in a medium supplemented with serum. After 24 h, the medium was changed to a serum-free DMEM one containing graded concentrations of peptides. The cells were incubated with peptides for 48 h. Thereafter, MTT was added in order to reach a final concentration of 0.5 mg/mL, and the plates were incubated at 37 °C for 4 h. Then, the MTT reading was analysed using a plate reader. The absorbance at 630 nm (background absorbance) was subtracted from that at 570 nm for each well.
# [7] = different lipopeptide concentrations
MIC C. albicans [1] [µg/mL],MIC E. coli [2] [µg/mL],MIC P. aeruginosa [3] [µg/mL],MIC S. aureus [4] [µg/mL],MIC S. epidermidis [5] [µg/mL],Compound,IC50 on human keratinocytes (HaCaT) [6] [µg/mL],"aggregate size from self-diffusion coefficients (PFG NMR), compared with C16-KKKK-NH2 [7]"
4,128,64,64,4,CCCCCCCCCCCCCCCCCC(=O)N[C@@H](CCCCN)C(=O)N[C@@H](CCCCN)C(N)=O [Peptide C18-KK-NH2],0.69 ± 0.001,
4,8,128,8,4,CCCCCCCCCCCCCCCC(=O)N[C@@H](CCCCN)C(=O)N[C@@H](CCCCN)C(N)=O [Peptide C16-KK-NH2],2.5 ± 0.8,
16,16,16,8,8,CCCCCCCCCCCCCCCC(=O)N[C@@H](CCCCN)C(=O)N[C@@H](CCCCN)C(=O)N[C@@H](CCCCN)C(=O)N[C@@H](CCCCN)C(N)=O [Peptide C16-KKKK-NH2] (Palmitoyl-KKKK-NH2),23.52 ± 1.30,
>512,512,256,64,16,CCCCCCCCCCCC(=O)N[C@@H](CCCCN)C(=O)N[C@@H](CCCCN)C(=O)N[C@@H](CCCCN)C(=O)N[C@@H](CCCCN)C(N)=O [Peptide C12-KKKK-NH2] (Lauroyl-KKKK-NH2),,
4,64,64,128,2,CCCCCCCCCCCCCCCC(=O)N[C@@H](CCCCN)C(=O)NCCC(=O)N[C@@H](CCCCN)C(N)=O [Peptide C16-KβAK-NH2],25.11 ± 6.17,
128,128,128,32,≤1,CCCCCCCCCCCCCC(=O)N[C@@H](CCCCN)C(=O)N[C@@H](CCCCN)C(=O)N[C@@H](CCCCN)C(=O)N[C@@H](CCCNC(=N)N)C(N)=O [Peptide C14-KKKR-NH2] (Myristoyl-KKKR-NH2),32.5 ± 10.0,
128,64,64,16,≤1,CCCCCCCCCCCCCC(=O)N[C@@H](CCCCN)C(=O)N[C@@H](CCCNC(=N)N)C(=O)N[C@@H](CCCCN)C(=O)N[C@@H](CCCCN)C(N)=O [Peptide C14-KRKK-NH2] (Myristoyl-KRKK-NH2),20.38 ± 4.12,
8,8,64,16,4,CCCCCCCCCCCCCCCC(=O)N[C@@H](CCCCN)C(=O)NCC(=O)N[C@@H](CCCCN)C(N)=O [Peptide C16-KGK-NH2] (Palmitoyl-Lys-Gly-Lys-NH2),7.41 ± 3.05,
512,512,512,64,≤1,CCCCCCCCCCCC(=O)N[C@@H](CCCCN)C(=O)N[C@@H](CCCNC(=N)N)C(=O)N[C@@H](CCCCN)C(=O)N[C@@H](CCCCN)C(N)=O [Peptide C12-KRKK-NH2] (Lauroyl-KRKK-NH2),,
,,,,,CCCCCCCCCCCCCCCC(=O)N[C@@H](CCCNC(=N)N)C(=O)N[C@@H](CCCNC(=N)N)C(=O)N[C@@H](CCCNC(=N)N)C(=O)N[C@@H](CCCNC(=N)N)C(N)=O [Peptide C16-RRRR-NH2] (Palmitoyl-RRRR-NH2),,distinctly larger aggregates
128,128,64,32,2,CCCCCCCCCCCCCC(=O)N[C@@H](CCCCN)C(=O)N[C@@H](CCCCN)C(=O)N[C@@H](CCCCN)C(=O)N[C@@H](CCCCN)C(N)=O [Peptide C14-KKKK-NH2] (Myristoyl-KKKK-NH2),15.63 ± 0.74,
